Assay results from patent US20210022342A1, “THE USE OF SAFENERS TO IMPROVE RESISTANCE OF RICE CROP TO HERBICIDES” (Adama Agan Ltd., priority 2018, published 2021).

Tests used:
Assay type in all cases: in vivo
[1] = test system: mutant rice (ML0831265-01493, ATCC deposit PTA-12933, mutation G2096S); assay: Tank mixes of safeners with propaquizafop or quizalofop: regrowth of mutant rice
Description: (§1) Seeds of a proprietary ACCase resistant rice variety, i.e. RTA1, was used. RTA1, ML0831265-01493 (ATCC deposit PTA-12933, mutation G2096S) variety rice seeds were supplied by RiceTec. RTA1 rice cultivar contains a single mutation in the ACCase gene that confer ACCase resistance. The mutation makes the enzyme insensitive to quizalofop.
(§2) Mutant rice seeds were planted in commercial greenhouse soil mix in 10×10×10 cm plastic pots. 250 mL of soil was put into each pot, then the seeds were placed on top of the soil and the seeds were covered with 100-150 mL of soil. Approximately 8-10 seeds were planted per pot. The pots were then watered with 100 mL of a mixture of Miracle Grow and Fertiplus (iron supplement). The pots were placed in the greenhouse (38° C./20° C. day/night, 14 h photoperiod with supplemental light). The average light intensity in the greenhouse was 150 μM/m^2/sec.
Plants were grown until 10 days after planting and then the pots were transferred to trays and the plants were grown under water. :Plants were treated when they reached the 3-5 leaf stage.
Safeners were tank mixed with the herbicide in the spray bottle.
(§3) Four days after treatment, the tops of the plants were cut off so that approximately 2.5 cm of plant from the top of the soil remain. The plants were allowed to regrow for 3 days at which time the amount of regrowth was weighed by measuring the amount of fresh weight of tissue that regrew. Comparing the weight of regrowth of shoots after cutting indicates the level of phytotoxicity the herbicide had on the mutant rice plant and the increased level of resistance of the mutant rice to the herbicide when the herbicide was applied in combination with the safener.
The safeners were applied in various w/w ratios with the ACCase inhibiting herbicides to the rice plant.

[2] = test system: ACCase inhibitor resistant rice seeds (ML0831265-01493 (ATCC deposit PTA-12933, mutation G2096S)); assay: Safener seed treatment with propaquizafop or quizalofop: regrowth of resistant rice
Description: as §1, §2
Plants were grown until 10 days after planting and then the pots were transferred to trays and the plants were grown under water. :Plants were treated when they reached the 3-5 leaf stage. […]
as §3
The safeners were also applied in various w/w ratios of the ACCase inhibiting herbicides to the rice seeds.

[3] = test system: wild type rice (Non-Traited Rice); assay: Imazamox dose response with or without isoxadifen, regrowth, wild type rice; settings: for Calculated effect of Safener (relative fresh weight re-growth): difference with and without isoxadifen on Non-Traited Rice
Description: (§4) Seed of an ALS resistant rice variety (rice plant with the A205V and G654E substitution (ATCC accession numbers PTA-123859, PTA-123860 and/or PTA-123861) is planted in a commercial greenhouse soil mix in 10×10×10 cm plastic pots. 250 mL of soil is put into each pot, then the seed is placed on top of the soil and the seed is covered with 100-150 mL of soil. Approximately 8-10 seeds are planted per pot. The pots are then watered with 100 mL of a mixture of Miracle Grow and Fertiplus (iron supplement). The pots are placed in the greenhouse (38° C./20° C. day/night, 14 h photoperiod with supplemental light). The average light intensity in the greenhouse is 150 μM/m^2/sec.
(§5) Plants are grown until 10 days after planting and then the pots are transferred to trays and the plants are grown under water. Plants are treated when they reach the 3-5 leaf stage.
(§6) Generally, plants are treated through a moving nozzle spray system in a spray volume of 200 l/ha or 187 l/ha. Isoxadifen is tank mixed with the herbicide in the spray bottle at a rate of 100 g/ha.
(§7) Four days after treatment, the tops of the plants are cut off to approximately 3 cm from the top of the soil. The plants are allowed to regrow for 7 days at which time the amount of regrowth is measured by cutting any growth above 3 cm above the top of soil and weighing the tissue that regrew.
(§8) The imazamox (in rates of 0, 2.2, 6.6, 19.7, 54.9 and 177.3 g/ha) was applied on wild type rice and herbicide resistance rice in the presence or absence of safener (isoxadifen at 100 g/ha).
(§9) The improvement in regrowth was calculated by subtracting the regrowth from a) wild type rice and wild type rice with isoxadifen; b) herbicide resistant rice; and c) herbicide resistant rice and isoxadifen.
(§10) Calculations were done for each application rate of imazamox. The efficacy of safener alone and mutation alone on decreasing herbicide effect/increasing herbicide resistance were calculated. The relative fresh weight re-growth is the percentage of activity (for Colby).
(§11) The re-growth data was implemented in curve and the synergistic effect was calculated. The observed efficacy is higher than calculated efficacy.

[4] = test system: ALS resistant rice variety (A205V and G654E substitution); assay: Imazamox dose response with or without isoxadifen, regrowth, ALS resistant rice
Description: as §4, §5, §6, §7
Efficacy tests were conducted to determine the effect of imazamox on rice plant with the A205V and G654E substitutions (ATCC accession numbers PTA-123859, PTA-123860 and/or PTA-123861) in the presence of safener (isoxadifen).
as §8, §9, §10, §11

[5] = propaquizafop, safener seed treatment 0.5 g/kg of seed
[6] = propaquizafop, safener seed treatment 1 g/kg of seed
[7] = propaquizafop, safener seed treatment 2 g/kg of seed
[8] = quizalofop, safener seed treatment 0.5 g/kg of seed
[9] = quizalofop, safener seed treatment 1 g/kg of seed
[10] = quizalofop, safener seed treatment 2 g/kg of seed
[11] = tank mix with propaquizafop 50 g/ha, safener 12.5 g/ha
[12] = tank mix with propaquizafop 50 g/ha, safener 25 g/ha
[13] = tank mix with propaquizafop 50 g/ha, safener 50 g/ha
[14] = tank mix with propaquizafop 50 g/ha, safener 100 g/ha
[15] = tank mix with quizalofop 40 g/ha, safener 12.5 g/ha
[16] = tank mix with quizalofop 40 g/ha, safener 25 g/ha
[17] = tank mix with quizalofop 40 g/ha, safener 50 g/ha
[18] = tank mix with quizalofop 40 g/ha, safener 100 g/ha

CC(C)=NOCCOC(=O)[C@@H](C)Oc1ccc(Oc2cnc3cc(Cl)ccc3n2)cc1 [Propaquizafop, (R)-2-[[(1-methylethylidene)amino]oxy]ethyl 2-[4-[(6-chloro-2-quinoxalinyl)oxy]phenoxy]propanoate]
Regrowth (fresh weight mg) ([1]; propaquizafop 50 g/ha, no safener): 25 mg
Regrowth (fresh weight mg) ([2]; propaquizafop, seeds without safener): 55 mg

CC1COc2ccccc2N1C(=O)C(Cl)Cl (centres unmarked) [Benzacor, benoxacor]
Regrowth (fresh weight mg) [2, 5]: 37 mg
Regrowth (fresh weight mg) [2, 6]: 107 mg
Regrowth (fresh weight mg) [2, 7]: 98 mg
Regrowth (fresh weight mg) [2, 8]: 90 mg
Regrowth (fresh weight mg) [2, 9]: 72 mg
Regrowth (fresh weight mg) [2, 10]: 78 mg

Clc1cc(Cl)nc(-c2ccccc2)n1 [Fenclorim, fenclorim]
Regrowth (fresh weight mg) [1, 11]: 15 mg
Regrowth (fresh weight mg) [1, 12]: 13 mg
Regrowth (fresh weight mg) [1, 13]: 15 mg
Regrowth (fresh weight mg) [1, 14]: 15 mg
Regrowth (fresh weight mg) [1, 15]: 42 mg
Regrowth (fresh weight mg) [1, 16]: 52 mg
Regrowth (fresh weight mg) [1, 17]: 67 mg
Regrowth (fresh weight mg) [1, 18]: 55 mg
Regrowth (fresh weight mg) [2, 5]: 137 mg
Regrowth (fresh weight mg) [2, 6]: 195 mg
Regrowth (fresh weight mg) [2, 7]: 283 mg
Regrowth (fresh weight mg) [2, 8]: 163 mg
Regrowth (fresh weight mg) [2, 9]: 167 mg
Regrowth (fresh weight mg) [2, 10]: 180 mg

O=C(O)COc1ccc(Cl)c2cccnc12 [Cloquinoce, cloquintocet]
Regrowth (fresh weight mg) [1, 11]: 42 mg
Regrowth (fresh weight mg) [1, 12]: 90 mg
Regrowth (fresh weight mg) [1, 13]: 158 mg
Regrowth (fresh weight mg) [1, 14]: 355 mg
Regrowth (fresh weight mg) [1, 15]: 172 mg
Regrowth (fresh weight mg) [1, 16]: 132 mg
Regrowth (fresh weight mg) [1, 17]: 252 mg
Regrowth (fresh weight mg) [1, 18]: 398 mg
Regrowth (fresh weight mg) [2, 5]: 275 mg
Regrowth (fresh weight mg) [2, 6]: 342 mg
Regrowth (fresh weight mg) [2, 7]: 358 mg
Regrowth (fresh weight mg) [2, 8]: 143 mg
Regrowth (fresh weight mg) [2, 9]: 145 mg
Regrowth (fresh weight mg) [2, 10]: 273 mg

COCc1cnc(C2=NC(C)(C(C)C)C(=O)N2)c(C(=O)O)c1 (racemic) [Imazamox, 2-[(RS)-4-isopropyl-4-methyl-5-oxo-2-imidazolin-2-yl]-5-methoxymethylnicotinic acid]
Relative fresh weight re-growth after treatment ([3]; Non-Traited Rice, imazamox 2.2 g/ha): 0.36
Relative fresh weight re-growth after treatment ([3]; Non-Traited Rice, imazamox 6.6 g/ha): 0.16
Relative fresh weight re-growth after treatment ([3]; Non-Traited Rice, imazamox 19.7 g/ha): 0.14
Relative fresh weight re-growth after treatment ([3]; Non-Traited Rice, imazamox 54.9 g/ha): 0.11
Relative fresh weight re-growth after treatment ([3]; Non-Traited Rice, imazamox 177.3 g/ha): 0.09
Relative fresh weight re-growth after treatment ([3]; Safener & Non-Traited Rice (isoxadifen 100 g/ha), imazamox 2.2 g/ha): 0.47
Relative fresh weight re-growth after treatment ([3]; Safener & Non-Traited Rice (isoxadifen 100 g/ha), imazamox 6.6 g/ha): 0.17
Relative fresh weight re-growth after treatment ([3]; Safener & Non-Traited Rice (isoxadifen 100 g/ha), imazamox 19.7 g/ha): 0.06
Relative fresh weight re-growth after treatment ([3]; Safener & Non-Traited Rice (isoxadifen 100 g/ha), imazamox 54.9 g/ha): 0.05
Relative fresh weight re-growth after treatment ([3]; Safener & Non-Traited Rice (isoxadifen 100 g/ha), imazamox 177.3 g/ha): 0.05
Efficacy at ED50 of mutant- 42 g/ha (%) ([3]; calculated effect of safener alone, imazamox 42 g/ha): 0%
Calculated effect of Safener (relative fresh weight re-growth) ([3]; imazamox 2.2 g/ha): 0.12
Calculated effect of Safener (relative fresh weight re-growth) ([3]; imazamox 6.6 g/ha): 0.02
Calculated effect of Safener (relative fresh weight re-growth) ([3]; imazamox 19.7 g/ha): −0.08
Calculated effect of Safener (relative fresh weight re-growth) ([3]; imazamox 54.9 g/ha): −0.06
Calculated effect of Safener (relative fresh weight re-growth) ([3]; imazamox 177.3 g/ha): −0.04
increase of resistance (ED50) by the safener ([3]; wildtype rice with safener vs without): 4 folds
Relative fresh weight re-growth after treatment ([4]; Mutant & Safener (isoxadifen 100 g/ha), imazamox 2.2 g/ha): 1.17
Relative fresh weight re-growth after treatment ([4]; Mutant & Safener (isoxadifen 100 g/ha), imazamox 6.6 g/ha): 1.33
Relative fresh weight re-growth after treatment ([4]; Mutant & Safener (isoxadifen 100 g/ha), imazamox 19.7 g/ha): 1.14
Relative fresh weight re-growth after treatment ([4]; Mutant & Safener (isoxadifen 100 g/ha), imazamox 54.9 g/ha): 0.53
Relative fresh weight re-growth after treatment ([4]; Mutant & Safener (isoxadifen 100 g/ha), imazamox 177.3 g/ha): 0.13
Relative fresh weight re-growth after treatment ([4]; Mutant, no safener, imazamox 2.2 g/ha): 0.93
Relative fresh weight re-growth after treatment ([4]; Mutant, no safener, imazamox 6.6 g/ha): 0.99
Relative fresh weight re-growth after treatment ([4]; Mutant, no safener, imazamox 19.7 g/ha): 0.68
Relative fresh weight re-growth after treatment ([4]; Mutant, no safener, imazamox 54.9 g/ha): 0.42
Relative fresh weight re-growth after treatment ([4]; Mutant, no safener, imazamox 177.3 g/ha): 0.15
Calculated efficacy base on Colby (%) ([4]; expected for mutant & safener, imazamox 42 g/ha): 50%
additive effect of safener and mutant on ED50 ([4]; expected, 4+85): 89 folds
observed increase in ED50 ([4]; herbicide resistant rice with safener vs the wildtype): 120 folds
Observed efficacy (%) ([4]; mutant & safener, imazamox 42 g/ha): 77%
Efficacy at ED50 of mutant- 42 g/ha (%) ([4]; mutant alone, imazamox 42 g/ha): 50%
increase in tolerance to herbicide (ED50) by the mutation ([4]; mutant rice vs wildtype rice, no safener): 85 fold

O=C(C(Cl)Cl)N1CCOC12CCCCC2 [AD-67]
Regrowth (fresh weight mg) [1, 11]: 68 mg
Regrowth (fresh weight mg) [1, 12]: 222 mg
Regrowth (fresh weight mg) [1, 13]: 288 mg
Regrowth (fresh weight mg) [1, 14]: 512 mg
Regrowth (fresh weight mg) [1, 15]: 202 mg
Regrowth (fresh weight mg) [1, 16]: 292 mg
Regrowth (fresh weight mg) [1, 17]: 348 mg
Regrowth (fresh weight mg) [1, 18]: 505 mg
Regrowth (fresh weight mg) [2, 5]: 173 mg
Regrowth (fresh weight mg) [2, 6]: 113 mg
Regrowth (fresh weight mg) [2, 7]: 170 mg
Regrowth (fresh weight mg) [2, 8]: 233 mg
Regrowth (fresh weight mg) [2, 9]: 285 mg
Regrowth (fresh weight mg) [2, 10]: 298 mg
